{
  "source": "patent US20060293390A1",
  "about": "(priority 2003, published 2006)",
  "key": {"[1]": {"tested_on": "bladder cancer cell line RT112", "experiment": "Apoptosis: cytoplasmic histone-associated DNA fragments, photometric enzyme immunoassay (FIG. 1)", "format": "cell-based, human", "protocol": "FIG. 1: FIG. 1 is a representation of apoptosis measurements with a bladder cancer cell line RT112. […] Besides the control measurements without Diflunisal, there is also a “positive” control (CAM) registered with a defined calibrated system. Apoptosis was measured by determination of cytoplasmic histone-associated DNA fragments (mono- and oligonucleosomes) after induced cell death. The qualitative and quantitative in vitro determination of apoptosis in RT112 tumor cells was analyzed with a photometric enzyme immunoassay. In brief, RT112 cells were harvested, washed twice and resuspended in culture media to yield a density of 2.5×10^5/ml. 100 μl/well of the RT112 cell suspension were seeded into 96 well microtiter plates (obtainable from BECTON DICKINSON) and incubated overnight at 37° C. and 5% CO2. The supernatant was replaced by 90 μl pH-adjusted culture medium alone (control). Again, the cells were incubated for various time periods at 37° C. and 5% CO2. Supernatants of the cell cultures were discarded and RT112 cells were lysed in lysis buffer for 30 minutes at RT (25° C.). The cytoplasmic fractions were transferred into a streptavidin-coated microtiter plate, and the working procedure for the ELISA was performed according to the manufacturer's instructions (the ELISA test was obtained from BOEHRINGER […], Germany). […] But there is also a superimposed part of the third level."}, "leukemia cell line K-562": {"tested_on": "leukemia cell line K-562", "experiment": "Pore formation: PI-stained dead cells by flow cytometry (FIG. 2)", "format": "cell-based, human", "protocol": "FIG. 2: FIG. 2 is a representation of pore formation under conditions of interstitial albumin concentration of 0.2 mM. […] The dead cell fraction compared to the total cell number is measured in a flow cytometer. The experiments were conducted with the leukemia cell line K-562. […] Of minor interest is the second pore formation process starting at pH 6.4, because this process functions beyond the acidity milieu of most tumors. […] Pore formation was measured by determination of the necrotic cells measured by flow cytometry. Cultures of the leukemia cell line K-562 were harvested, and 5×10^5 cells were added into 6 ml tubes (BD). After centrifugation (250×g; 5 min; room temperature (25° C.)) the cells were resuspended in 900 μl pH-adjusted culture medium (pH 6.0-7.4; RPMI 1640 without NaHCO3; available from SIGMA). Then test substances were added to the samples and cells were incubated in a final volume of 1 ml at 37° C. in a water bath. After the incubation period the pH of the samples was measured, and the cells were washed and resuspended in 300 μl FACS medium (PBS+2% FCS and 0.1% NaN3). Cells were stained with propidium iodide (PI; available form SIGMA; 25 μl/25 μg/tube) for 15 minutes at RT (25° C.). Subsequently analysis of the stained cells was performed on an EPICS XL-MCL flow cytometer (available from COULTER, Krefeld, Germany), equipped with a 15 mW argon laser at an excitation wavelength of 488 nm. PI fluorescence was measured in the red channel (FL3; 620 nm longpass filter). Data acquisition and analysis was performed using XL-System II software (available from the company COULTER). It can be seen that Diflunisal causes pH-dependent pore formation in cancer cells."}, "[2]": {"tested_on": "bladder cancer cell line RT112", "experiment": "Lactate transport: enzymatic determination of lactate in supernatants (FIG. 3)", "format": "cell-based, human", "protocol": "There is plotted a control measurement which indicates lactate efflux in dependence of pH and without any Diflunisal influence. […] The lactate transport was measured by qualitative enzymatic determination of lactate in supernatants of RT112 cells at 340 nm. RT112 cells were harvested, washed twice and resuspended in culture media to yield a density of 2×10^5/ml. 500 μl/well of the RT112 cell suspension were seeded into 24 well microtiter plates (BD) and incubated overnight at 37° C. and 5% CO2. The supernatant was replaced by 450 μl pH-adjusted culture medium (pH 6.0-7.4) and 50 μl of the solution of preferred substances or 500 μl/well pH-adjusted culture medium alone (control). Again, the cells were incubated for 24 h at 37° C. and 5% CO2. The measurement of lactate in the supernatants at 340 nm (PERKIN-ELMER, Lambda 17. UV-VIS Spectrophotometer, Überlingen, Germany) was performed according to the manufacturer's instructions (SIGMA DIAGNOSTICS, Deisenhofen, Germany; Lactate: Quantitative, Enzymatic Determination of Lactate in Whole Blood at 340 nm (Procedure No. 826-UV))."}, "RT112 cells": {"tested_on": "RT112 cells", "experiment": "Respiration: mitochondrial activity, XTT assay (FIG. 4)", "format": "cell-based, human", "protocol": "This behavior reflects the apoptosis induction from the second affinity level of albumin. Increasing the concentrations higher than 1.0 mM also the whole respiration activity within the pH range 7.0-7.4 is diminished and falls to 0 at 1.5 mM. The same is true with concentrations up to 2.0 mM. This effect is introduced by apoptosis at pH 7.0-7.4, accelerated by the third and fourth affinity level of albumin. […] The mitochondrial activity of RT112 was determined using a colorimetric assay (XTT assay). […] The mitochondrial succinate-tetrazolium reductase system cleaves the tetrazolium salt XTT to formazan. The amount of this dye is directly correlated to the number of metabolically active cells, as the enzyme system is only active in respirating and viable cells. For this purpose, RT112 cells were harvested, washed twice and resuspended in culture media to yield a density of 2.5×10^5/ml. 100 μl/well of the RT112 cell suspension were seeded into 96 well microtiter plates (BECTON DICKINSON (BD), Heidelberg, Germany) and incubated overnight at 37° C. and 5% CO2. The supernatant was replaced by 90 μl pH-adjusted culture medium (pH 6.0-7.4) and 10 μl of preferred substances or 100 μl/well pH-adjusted culture medium alone (control). The cells were incubated for various time periods at 37° C. and 5% CO2. Thereafter, cells were washed twice and reincubated in fresh pH-adjusted culture medium. After the incubation period, pH of each well was determined with highly sensitive microelectrodes before 50 μl XTT labeling mixture was added. The cells were further incubated for additional 4 h at 37° C. and 5% CO2. The spectrophotometric absorbance of the samples was measured using a microtiter plate (ELISA) reader ([…], Denkendorf, Germany) at a wavelength of […] (630 nm as reference). Data acquisition and analysis was performed using BioLinx 2.1 software ([…])."}, "[3]": {"experiment": "Resorption of orally administered Diflunisal: concentration in blood / interstitial milieu", "format": "in vivo"}, "[4]": {"tested_on": "colon and colorectal cancer", "conditions": "cited from earlier work"}, "[5]": {"conditions": "1.0 mM Diflunisal, 0.06 mM albumin, third affinity level"}, "[6]": {"conditions": "3 Diflunisal molecules bound to albumin, 0.17 mM albumin"}, "[7]": {"conditions": "1.0 mM Diflunisal, 0.2 mM albumin"}, "[8]": {"conditions": "ratio 6:1 Diflunisal to albumin"}},
  "note": "Where “and” joins values, the source holds several entries; their conditions need not be identical. Equal values may be shown once.",
  "data": [
    {"smiles": "O=C(O)c1cc(-c2ccc(F)cc2F)ccc1O", "note": "[Diflunisal, 5-(2,4-difluorophenyl)salicylic acid]", "values": [
      {"measurement": "pH at which apoptosis ends", "setting": "[1]; [5]", "value": 7.4, "unit": "pH"},
      {"measurement": "pH at which apoptosis starts", "setting": "[1]; [5]", "value": 7.0, "unit": "pH"},
      {"measurement": "pH range in which apoptosis occurs", "setting": "[1]; 4 to 6 Diflunisal bound to albumin", "value": "6.0-7.2 pH"},
      {"measurement": "pH range in which apoptosis is achieved", "setting": "[1]; Diflunisal/albumin ratio 7-9, 0.17 mM albumin", "value": "7.0-7.4 pH"},
      {"measurement": "starting pH of the second pore formation process", "setting": "leukemia cell line K-562; 0.2 mM albumin", "value": 6.4, "unit": "pH"},
      {"measurement": "pH of pore formation, third affinity level of albumin", "setting": "leukemia cell line K-562; 1.25 mM to 1.5 mM Diflunisal, 0.2 mM albumin", "value": "≤ 7.0", "unit": "pH"},
      {"measurement": "pH at which pore formation happens", "setting": "leukemia cell line K-562; [6]", "value": "< 6.5", "unit": "pH"},
      {"measurement": "interstitial concentration from which pore formation starts in a therapy-relevant pH range", "setting": "leukemia cell line K-562; FIG. 2, 0.2 mM albumin", "value": "≥ 1.25", "unit": "mM"},
      {"measurement": "pH at which pore formation can be produced", "setting": "leukemia cell line K-562; cancer cell suspensions, flow cytometer", "value": "< 7.0", "unit": "pH"},
      {"measurement": "starting pH of a third transport system (fourth affinity level of albumin)", "setting": "leukemia cell line K-562; not shown in FIG. 2", "value": "7.2-7.3 pH"},
      {"measurement": "interstitial Diflunisal concentration at which pore formation starts", "setting": "leukemia cell line K-562; pH<7.0", "value": "about 0.7 mM"},
      {"measurement": "pH range of lactate antiport", "setting": "[2]; [6]", "value": "6.6-7.4 pH"},
      {"measurement": "pH range in which lactate efflux is remarkably enhanced", "setting": "[2]; FIG. 3, against control without Diflunisal", "value": "6.0 to 7.2", "unit": "pH"},
      {"measurement": "Diflunisal/lactate antiport", "setting": "[2]; three Diflunisal bound to albumin, first affinity stage", "value": "no antiport happens"},
      {"measurement": "pH at which deviation from normal respiration activity reaches its maximum", "setting": "RT112 cells; [7]", "value": "~6.9", "unit": "pH"},
      {"measurement": "pH at which inhibition of respiration activity starts", "setting": "RT112 cells; [7]", "value": "~7.2", "unit": "pH"},
      {"measurement": "respiration activity within pH range 7.0-7.4", "setting": "RT112 cells; 1.5 mM Diflunisal (same up to 2.0 mM), 0.2 mM albumin", "value": 0},
      {"measurement": "pH range of the new respiration blockade effect", "setting": "RT112 cells; 7 to 9 Diflunisal to albumin", "value": "7.0-7.4 pH"},
      {"measurement": "blockade of the respiration chain", "setting": "RT112 cells; ratio 4:1 Diflunisal to albumin", "value": "significant increase in activity"},
      {"measurement": "pH range in which the blockade effect declines to ineffectiveness", "setting": "RT112 cells; [8]", "value": "6.9 to 7.2", "unit": "pH"},
      {"measurement": "pH up to which the respiration blockade reaches an optimum", "setting": "RT112 cells; [8]", "value": "≤ 6.9", "unit": "pH"},
      {"measurement": "blockade of the respiration chain", "setting": "RT112 cells; three bound Diflunisal molecules per albumin", "value": "no substantial blockade"},
      {"measurement": "concentration in blood", "setting": "[3]; 100 mg/kg administered orally", "value": "≤ 1000", "unit": "µM"},
      {"measurement": "dose at which the saturation concentration is reached", "setting": "[3]; oral administration", "value": 50, "unit": "mg/kg"},
      {"measurement": "saturation concentration in blood", "setting": "[3]; oral administration", "value": 250, "unit": "µg/mL"},
      {"measurement": "saturation concentration (resorption saturation)", "setting": "[3]; oral administration, converted from 250 μg/ml", "value": "1.00 mM and 1.0 mM"},
      {"measurement": "interstitial concentration", "setting": "[3]; patient treatments, 1000 mg/day, Diflunisal to albumin ratio <2:1", "value": "< 0.3", "unit": "mM"},
      {"measurement": "active concentration of Diflunisal", "setting": "[4]; Life Science 70, 2001, 37-48", "value": "suprapharmacological and intrinsically cytotoxic"},
      {"measurement": "cancer cell kill", "setting": "[4]; patient treatments, 1000 mg/day", "value": "no cancer cell kill takes place"}
    ]}
  ]
}
